# Laboratory results from ChEMBL document CHEMBL5550086, “Drug discovery targeting nicotinamide phosphoribosyltransferase (NAMPT): Updated progress and perspectives” (Bioorg Med Chem, 2024).
# How the values were obtained:
# [1] = molecular target: T1, Protein cereblon/Nicotinamide phosphoribosyltransferase (Homo sapiens, UniProt P43490+Q96SW2); assay: PROTAC activity at CRBN/NAMPT in human Jurkat cells assessed as induction of intracellular NAMPT degradation incubated for 24 hrs by Western blot analysis; type: cell-based
# Target sequence in this assay (P43490 whole entry): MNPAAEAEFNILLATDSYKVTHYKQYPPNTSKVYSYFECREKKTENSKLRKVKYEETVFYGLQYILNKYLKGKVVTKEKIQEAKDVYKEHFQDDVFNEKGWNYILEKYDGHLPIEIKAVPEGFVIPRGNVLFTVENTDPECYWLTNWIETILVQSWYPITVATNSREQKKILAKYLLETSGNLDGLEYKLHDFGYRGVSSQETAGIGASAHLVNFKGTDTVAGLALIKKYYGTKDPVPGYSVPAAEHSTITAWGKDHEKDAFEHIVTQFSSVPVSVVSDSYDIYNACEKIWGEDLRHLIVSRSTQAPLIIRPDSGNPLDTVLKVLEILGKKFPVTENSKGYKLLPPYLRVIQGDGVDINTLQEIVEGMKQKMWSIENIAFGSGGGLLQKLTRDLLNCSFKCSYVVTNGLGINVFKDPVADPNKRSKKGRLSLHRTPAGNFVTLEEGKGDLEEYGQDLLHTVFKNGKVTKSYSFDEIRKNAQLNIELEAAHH
# Target sequence in this assay (Q96SW2 whole entry): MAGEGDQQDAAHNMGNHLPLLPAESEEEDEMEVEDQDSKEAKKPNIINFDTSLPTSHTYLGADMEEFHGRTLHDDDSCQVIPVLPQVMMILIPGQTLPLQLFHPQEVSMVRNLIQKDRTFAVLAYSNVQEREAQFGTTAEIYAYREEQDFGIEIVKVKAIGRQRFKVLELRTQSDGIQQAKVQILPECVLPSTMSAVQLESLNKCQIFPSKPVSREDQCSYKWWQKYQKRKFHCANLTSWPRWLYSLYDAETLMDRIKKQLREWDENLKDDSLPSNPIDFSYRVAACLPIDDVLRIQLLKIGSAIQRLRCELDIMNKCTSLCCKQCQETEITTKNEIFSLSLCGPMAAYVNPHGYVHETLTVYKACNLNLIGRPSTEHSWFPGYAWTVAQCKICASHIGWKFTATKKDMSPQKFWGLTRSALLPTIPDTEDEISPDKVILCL
# [2] = molecular target: T1, Protein cereblon/Nicotinamide phosphoribosyltransferase; assay: PROTAC activity at CRBN/NAMPT in human Jurkat cells assessed as induction of intracellular NAMPT degradation at 5 uM incubated for 24 hrs by Western blot analysis relative to control; type: cell-based
# Target sequence in this assay (P43490 whole entry, looked up): as the sequence (P43490 whole entry) above
# Target sequence in this assay (Q96SW2 whole entry, looked up): as the sequence (Q96SW2 whole entry) above
# PC-3 = assay: Anticancer activity against human PC-3 cells; type: functional, cell-based
# HCT-116 = assay: Anticancer activity against human HCT-116 cells assessed as reduction in cell growth; type: functional, cell-based
# [3] = Anticancer activity against human NYH/VM cells assessed as reduction in cell growth; type: functional, cell-based
# HepG2 = assay: cells; conditions: Homo sapiens, HepG2, 48 h
# [4] = molecular target: T2, Nicotinamide phosphoribosyltransferase (Homo sapiens, UniProt P43490); assay: Activation of N-terminal His-tagged human NAMPT expressed in Escherichia coli BL 21 (DE3) using NAM and PRPP as substrates incubated for 15 mins in presence of ATP by fluorescence based spectrometer analysis
# T2 sequence (P43490 whole entry): as the sequence (P43490 whole entry) above
# [5] = molecular target: T2, Nicotinamide phosphoribosyltransferase; assay: Activation of recombinant NAMPT (unknown origin) expressed in Escherichia coli by fluorescence based spectrometer analysis
# [6] = molecular target: Nicotinamide phosphoribosyltransferase (Mus musculus, UniProt Q99KQ4); assay: Activation of N-terminal 6His-tagged mouse NAMPT measured for 20 mins by fluorescence based spectrometer analysis
# Sequence of Nicotinamide phosphoribosyltransferase (Mus musculus, UniProt Q99KQ4) (Q99KQ4 whole entry): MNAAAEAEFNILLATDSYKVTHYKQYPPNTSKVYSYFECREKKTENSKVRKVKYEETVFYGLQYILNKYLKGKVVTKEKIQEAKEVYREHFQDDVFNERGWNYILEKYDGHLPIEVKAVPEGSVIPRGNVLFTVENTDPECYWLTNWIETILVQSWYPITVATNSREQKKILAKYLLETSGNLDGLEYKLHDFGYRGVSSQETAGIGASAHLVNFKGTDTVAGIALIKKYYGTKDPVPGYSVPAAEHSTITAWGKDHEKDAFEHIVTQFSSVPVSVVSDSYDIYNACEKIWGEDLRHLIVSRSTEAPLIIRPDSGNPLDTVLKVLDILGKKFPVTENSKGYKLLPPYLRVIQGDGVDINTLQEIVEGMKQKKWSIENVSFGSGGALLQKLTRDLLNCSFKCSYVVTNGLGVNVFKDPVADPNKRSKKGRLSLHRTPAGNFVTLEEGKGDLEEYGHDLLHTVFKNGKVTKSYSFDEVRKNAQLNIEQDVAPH
# [7] = molecular target: Nicotinamide phosphoribosyltransferase (Mus musculus) (UniProt Q99KQ4); assay: Activation of N-terminal 6His-tagged mouse NAMPT assessed as increase in intracellular NAD+ level measured for 20 mins by fluorescence based spectrometer analysis relative to control; type: cell-based; conditions: filed as activator
# Sequence of Nicotinamide phosphoribosyltransferase (Mus musculus) (Q99KQ4 whole entry, looked up): as the sequence (Q99KQ4 whole entry) above
# [8] = molecular target: T2, Nicotinamide phosphoribosyltransferase; assay: Inhibition of NAMPT (unknown origin)
# Cytochrome P450 2C9 = Cytochrome P450 2C9 (Homo sapiens, UniProt P11712); assay: Inhibition of CYP2C9 (unknown origin); type: ADME
# Sequence of Cytochrome P450 2C9 (P11712 whole entry): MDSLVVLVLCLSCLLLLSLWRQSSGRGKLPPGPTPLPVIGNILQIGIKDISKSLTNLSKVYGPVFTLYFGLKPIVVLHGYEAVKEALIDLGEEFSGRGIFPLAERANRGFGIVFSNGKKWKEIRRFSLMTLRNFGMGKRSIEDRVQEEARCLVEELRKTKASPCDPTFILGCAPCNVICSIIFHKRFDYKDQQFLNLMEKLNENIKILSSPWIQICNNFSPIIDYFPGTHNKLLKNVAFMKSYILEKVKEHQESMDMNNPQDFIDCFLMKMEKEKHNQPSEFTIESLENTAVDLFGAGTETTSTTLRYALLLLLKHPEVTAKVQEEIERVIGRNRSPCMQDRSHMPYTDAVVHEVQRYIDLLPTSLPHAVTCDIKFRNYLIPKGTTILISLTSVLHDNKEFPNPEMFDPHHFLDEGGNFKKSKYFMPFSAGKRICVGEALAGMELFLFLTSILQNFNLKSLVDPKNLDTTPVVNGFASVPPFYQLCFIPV
# A2780 = assay: cells; conditions: Homo sapiens, A2780, 72 h
smiles,measurement,setting,value
O=C(/C=C/c1cccnc1)NCCCCC1CCN(C(=O)c2ccc(N3CCN(CCCCCCC#Cc4cccc5c4CN(C4CCC(=O)NC4=O)C5=O)CC3)cc2)CC1 (stereo unspecified),DC50,[1],< 1 nM
same,Emax,[2],92.5%
N#C/N=C(\NCCCCCCC(=O)N(Cc1ccccc1)OC1CCCCC1)Nc1ccncc1,IC50,PC-3,0.3 nM
same,IC50,HCT-116,0.4 nM
same,IC50,[3],0.02 nM
Cc1nc2ccccc2n(Cc2ccc(C(=O)NCc3cccnc3)cc2)c1=O,IC50,HepG2,1690 nM
CCN(CC)C(=O)c1noc2cc(NC(=O)NCc3cnco3)ccc12,EC50,[4],180 nM
O=C(/C=C/c1cccnc1)NCCCCC1CCN(C(=O)c2ccc(N3CCN(CCCCCC#Cc4cccc5c4CN(C4CCC(=O)NC4=O)C5=O)CC3)cc2)CC1 (stereo unspecified),DC50,[1],< 1 nM
same,Emax,[2],93.3%
CCCn1c(=O)c(-c2ccc(C(=O)NCc3cccnc3)cc2)nc2ccccc21,IC50,HepG2,1950 nM
O=C1C=C2Cc3cc(O)c(O)cc3C(c3ccccc3O)=C2C=C1O,EC50,[5],3500 nM
O=C(NCc1ccc(CO)cc1)Nc1ccc(S(=O)(=O)N2CC3CCC(C2)O3)cc1,EC50,[6],1490 nM
same,Emax,[7],247%
Nc1ccc(/C=C/C(=O)NCc2cc3cc(-c4ccc(C(=O)N5CCC(F)(F)CC5)cc4)cc(-c4ccc(F)cc4)c3o2)cn1 [PADNARSERTIB],IC50,[8],120 nM
O=C(NC[C@@H]1CCOC1)c1ccc(NC(=O)N2Cc3ccccc3C2)cc1,IC50,Cytochrome P450 2C9,> 20000 nM
O=S(=O)(c1ccc(CNc2ccc3cccn3c2)cc1)c1cc(F)cc(F)c1,IC50,A2780,360 nM
